Columns and labels:
[1] = system: rat bladder (volume-induced bladder contractions); experiment: In vivo rat bladder assay (volume-induced bladder contraction amplitude); set-up: species or system Sprague-Dawley rats; settings: anesthetized female rats, intravenous, normalized to atropine response
Procedure: Female Sprague-Dawley rats (Harlan, Indianapolis, Ind.) weighing 200 to 300 g were anesthetized with urethane (1.5 g/kg, s.c., Sigma, St. Louis, Mo.), with a supplement of 0.25 g/kg, s.c. urethane as needed. Urethane was administered at a concentration of 0.25 g/mL.
Rats were prepared for surgery by shaving the neck and abdomen and cleansing with ethanol wipes. First, an incision was made on the ventral surface. An intravenous catheter was placed by isolating and ligating the femoral vein. […]
Thereafter, an intravenous dose of the test compound was administered and changes in VIBCAmp were recorded for 15 minutes. Atropine (0.1 mg/kg) was then administered intravenously (1 mL/kg) as a positive control and VIBCAmp and data was recorded for an additional 15 minutes. […]
Alternatively, after the vehicle, increasing cumulative intravenous doses of the test compound were administered at 15 minute intervals (1 mL/kg) and changes in VIBCAmp were recorded for 15 minutes. […]
The average VIBCAmp during the 5-15 minute period after test compound and atropine was determined and subtracted from the average VIBCAmp during the 5-15 minute post-vehicle period to obtain the test compound or atropine-induced change in VIBCAmp. […]

[2] = biological target: T1, hM3 muscarinic receptor subtype (Homo sapiens, UniProt P20309); experiment: Radioligand binding assay ([3H]NMS displacement), hM3 relative to hM2; settings: ratio of Ki values
T1 construct: expressed in transfected cells; membranes prepared
T1 sequence (P20309 whole entry): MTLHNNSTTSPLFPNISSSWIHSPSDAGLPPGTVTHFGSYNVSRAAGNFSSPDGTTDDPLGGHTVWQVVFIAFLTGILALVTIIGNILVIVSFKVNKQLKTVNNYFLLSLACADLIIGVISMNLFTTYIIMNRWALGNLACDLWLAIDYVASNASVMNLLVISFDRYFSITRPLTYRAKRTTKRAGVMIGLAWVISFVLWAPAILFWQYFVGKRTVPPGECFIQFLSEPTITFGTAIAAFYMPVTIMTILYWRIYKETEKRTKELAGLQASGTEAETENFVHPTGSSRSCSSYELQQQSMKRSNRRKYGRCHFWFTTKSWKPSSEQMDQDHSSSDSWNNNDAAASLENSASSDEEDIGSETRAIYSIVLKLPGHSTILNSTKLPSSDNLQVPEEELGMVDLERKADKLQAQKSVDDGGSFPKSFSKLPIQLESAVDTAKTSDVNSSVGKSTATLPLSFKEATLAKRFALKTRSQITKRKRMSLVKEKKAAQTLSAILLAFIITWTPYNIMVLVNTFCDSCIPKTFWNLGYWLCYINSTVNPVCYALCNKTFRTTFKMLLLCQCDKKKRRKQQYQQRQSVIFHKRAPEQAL
Procedure: CHO (Chinese hamster ovary) cell lines stabilely expressing cloned human hM1, hM2, hM3 and hM4 muscarinic receptor subtypes, respectively, were grown to near confluency in medium consisting of HAM's F-12 supplemented with 10% FBS (Fetal Bovine Serum) and 250 μg/mL Geneticin. The cells were grown in a 5% CO2, 37° C. incubator and lifted with dPBS+2 mM EDTA. Cells were collected by 5 minute centrifugation at 650×g, and cell pellets were either stored frozen at −80° C. or membranes were prepared immediately. For membrane preparation, cell pellets were resuspended in lysis buffer and homogenized with a Polytron PT-2100 tissue disrupter (Kinematica AG; 20 seconds×2 bursts). Crude membranes were centrifuged at 40,000×g for 15 minutes at 4° C. […] Protein concentration of the membrane suspension was determined by the method of Lowry, O. et al., (1951) Journal of Biochemistry: 193, 265. […]
Radioligand binding assays were performed in 96-well microtiter plates in a total assay volume of 100 μL. […] Filter plates were rinsed three times with wash buffer (10 mM HEPES) to remove unbound radioactivity. […] The plates were then counted in a PerkinElmer Topcount liquid scintillation counter (PerkinElmer Inc., Wellesley, Mass.). Binding data were analyzed by nonlinear regression analysis with the GraphPad Prism Software package (GraphPad Software, Inc., San Diego, Calif.) using the one-site competition model. […]

For `COc1ccncc1CN1CCC(N(CCCCCCCN2CC[C@@H](C(C(N)=O)(c3ccccc3)c3ccccc3)C2)C(C)C)CC1` [Example 6], the “ID50 (dose required to produce 50% of the maximal response), VIBCAmp” value [1] was “less than or equal to 0.1 mg/kg” and the hM3/hM2 ratio [2] was “greater than 40”.

From US20050113413A1, “Naphthalene-1,5-disulfonic acid salts of a substituted 4-amino-1-(pyridylmethyl)piperidine compound” (priority 2003, published 2005)
